# Where “and” joins values, the source holds several entries; their conditions need not be identical. Identical values can stand only once.
# Test system: HeLa cells
# Experiment: Sphingolipid content of treated HeLa cells by quantitative mass spectrometry
# Assay type: cell-based
# Conditions: HeLa, 42h, single replicates; for Cer16 / Cer18 / Cer20 / Cer22 / Cer24 / Cer24:1 / Cer total / S1P / SM16 / SM18 / SM20 / SM22 / SM24 / SM24:1 / SM total / Sph: 500.000 cells per sample
# Description: 5.2 Cellular experiment for lipidomic analysis
# Hela cells were cultured in six well plates (177000 cells per well) under standard growth conditions (DMEM with 4mM L-glutamine, 10% FBS, 1% Penicillin-Streptomycin; CO2 incubator with […]
# 37°C, 5% CO2). […]
# After incubation, […]
# the adherent cells were washed twice with ice-cold PBS and harvested by treatment with trypsin.
# Cells were counted using a Countess II cell counter ( Invitrogen) and adjusted to 500.000 cells per sample. Each sample was then treated as described below.
# 6. Details for experimental lipidomics
# Cells were subjected to lipid extraction using 1.5 mL methanol/chloroform (2:1, v:v) as described. The extraction solvent contained C17-ceramide (Cer17) and C16 -d31-sphingomyelin (d31-SM16) (both Avanti Polar Lipids, Alabaster, USA) as internal standards. Chromatographic separations were achieved on a 1260 Infinity HPLC (Agilent Technologies, Waldbronn, Germany) equipped with a Poroshell 120 EC-C8 column (3.0 × 150 mm, 2.7 µm; Agilent Technologies). A mobile phase system consisting of water (solvent A) and acetonitrile/methanol (1:1, v:v; solvent B), both acidified with 0.1% formic acid, was used for gradient elution at an initial composition of 40:60 (A:B, v:v) and a flow rate of 0.5 mL/min. MS/MS analyses were carried out using a 6490 triple-quadrupole mass spectrometer (Agilent Technologies) operating in the positive electrospray ionization mode (ESI+). The following ion source parameters were set: sheath gas temperature, 375 °C; sheath gas flow, 12 L/min of nitrogen; nebulizer pressure, 30 psi; drying gas temperature, 200 °C; drying gas flow, 15 L/min of nitrogen; capillary voltage, 4000 V; nozzle voltage, 1500 V; iFunnel high pressure RF voltage, 150 V and iFunnel low pressure RF voltage, 60 V. The following mass transitions were recorded (collision energies of 25 eV for all transitions): ceramides: m/z […]
# with MassHunter Software (Agilent Technologies). Significance of differences between two samples was calculated by student’s t -test. Asterisks indicate significant differences between treated and untreated samples: * p<0.05; ** p<0.01; *** p<0.005.
# Table S1. Sphingolipid content of treated cells.
# (1 picture or pasted object on this page, not shown here)
smiles,measurement,setting,value
"CCCCCCCCCCCC(=O)NC(CO)CC(O)c1ccccc1 (stereo not drawn) [HPA-12, N-(3Hydroxy-1-hydroxymethyl-3-phenylpropyl)-dodecamide]",Cer16,1 µM,"48,20 pmol/sample and 45,94 pmol/sample and 44,92 pmol/sample"
same,Cer18,1 µM,"3,35 pmol/sample and 2,85 pmol/sample and 3,38 pmol/sample"
same,Cer20,1 µM,"1,15 pmol/sample and 0,88 pmol/sample and 1,18 pmol/sample"
same,Cer22,1 µM,"8,47 pmol/sample and 7,59 pmol/sample and 8,53 pmol/sample"
same,Cer24,1 µM,"25,47 pmol/sample and 26,70 pmol/sample and 25,58 pmol/sample"
same,Cer24:1,1 µM,"64,01 pmol/sample and 60,79 pmol/sample and 68,53 pmol/sample"
same,Cer total,1 µM,"150,65 pmol/sample and 143,74 pmol/sample and 153,13 pmol/sample"
same,S1P,1 µM,"1,34 pmol/sample and 1,27 pmol/sample and 1,52 pmol/sample"
same,SM16,1 µM,"1695,91 pmol/sample and 1668,53 pmol/sample and 1609,69 pmol/sample"
same,SM18,1 µM,"47,55 pmol/sample and 44,39 pmol/sample and 46,43 pmol/sample"
same,SM20,1 µM,"15,20 pmol/sample and 14,34 pmol/sample and 14,30 pmol/sample"
same,SM22,1 µM,"91,42 pmol/sample and 86,76 pmol/sample and 85,97 pmol/sample"
same,SM24,1 µM,"147,79 pmol/sample and 134,40 pmol/sample and 140,17 pmol/sample"
same,SM24:1,1 µM,"708,14 pmol/sample and 660,22 pmol/sample and 659,25 pmol/sample"
same,SM total,1 µM,"2706,02 pmol/sample and 2608,64 pmol/sample and 2555,82 pmol/sample"
same,Sph,1 µM,"3,87 pmol/sample and 3,57 pmol/sample and 3,94 pmol/sample"
same,ratio total SM/Cer,1 µM,"17,7 and 17,3 and 17,8"
same,Cer16,2.5 µM,"45,72 pmol/sample and 45,34 pmol/sample and 45,94 pmol/sample"
same,Cer18,2.5 µM,"2,82 pmol/sample and 3,05 pmol/sample and 2,77 pmol/sample"
same,Cer20,2.5 µM,"0,99 pmol/sample and 0,90 pmol/sample and 0,94 pmol/sample"
same,Cer22,2.5 µM,"8,93 pmol/sample (2×) and 7,27 pmol/sample"
same,Cer24,2.5 µM,"29,39 pmol/sample and 22,20 pmol/sample and 31,70 pmol/sample"
same,Cer24:1,2.5 µM,"64,09 pmol/sample and 55,48 pmol/sample and 66,75 pmol/sample"
same,Cer total,2.5 µM,"151,94 pmol/sample and 134,23 pmol/sample and 157,03 pmol/sample"
same,S1P,2.5 µM,"1,60 pmol/sample and 1,73 pmol/sample and 1,58 pmol/sample"
same,SM16,2.5 µM,"1489,44 pmol/sample and 1440,97 pmol/sample and 1448,69 pmol/sample"
same,SM18,2.5 µM,"53,85 pmol/sample and 43,84 pmol/sample and 45,37 pmol/sample"
same,SM20,2.5 µM,"20,27 pmol/sample and 13,88 pmol/sample and 14,55 pmol/sample"
same,SM22,2.5 µM,"75,95 pmol/sample and 76,48 pmol/sample and 75,20 pmol/sample"
same,SM24,2.5 µM,"129,06 pmol/sample and 114,60 pmol/sample and 121,10 pmol/sample"
same,SM24:1,2.5 µM,"524,32 pmol/sample and 581,92 pmol/sample and 555,40 pmol/sample"
same,SM total,2.5 µM,"2229,23 pmol/sample and 2350,50 pmol/sample and 2245,18 pmol/sample"
same,Sph,2.5 µM,"2,13 pmol/sample and 3,27 pmol/sample and 2,40 pmol/sample"
same,ratio total SM/Cer,2.5 µM,"14,2 and 15,5 and 16,7"
same,Cer16,5 µM,"43,83 pmol/sample and 46,26 pmol/sample and 43,34 pmol/sample"
same,Cer18,5 µM,"2,50 pmol/sample and 2,62 pmol/sample and 2,51 pmol/sample"
same,Cer20,5 µM,"0,74 pmol/sample and 0,81 pmol/sample and 0,73 pmol/sample"
same,Cer22,5 µM,"6,88 pmol/sample and 6,54 pmol/sample and 6,85 pmol/sample"
same,Cer24,5 µM,"20,93 pmol/sample and 21,64 pmol/sample and 23,60 pmol/sample"
same,Cer24:1,5 µM,"53,37 pmol/sample and 55,90 pmol/sample and 57,30 pmol/sample"
same,Cer total,5 µM,"128,26 pmol/sample and 133,78 pmol/sample and 134,34 pmol/sample"
same,S1P,5 µM,"1,43 pmol/sample and 1,97 pmol/sample and 1,45 pmol/sample"
same,SM16,5 µM,"1306,31 pmol/sample and 1249,58 pmol/sample and 1356,77 pmol/sample"
same,SM18,5 µM,"41,78 pmol/sample and 39,06 pmol/sample and 41,13 pmol/sample"
same,SM20,5 µM,"12,76 pmol/sample and 12,48 pmol/sample and 12,54 pmol/sample"
same,SM22,5 µM,"68,87 pmol/sample and 67,07 pmol/sample and 70,68 pmol/sample"
same,SM24,5 µM,"101,53 pmol/sample and 101,48 pmol/sample and 113,95 pmol/sample"
same,SM24:1,5 µM,"471,40 pmol/sample and 487,46 pmol/sample and 521,22 pmol/sample"
same,SM total,5 µM,"2002,66 pmol/sample and 1957,13 pmol/sample and 2116,29 pmol/sample"
same,Sph,5 µM,"3,33 pmol/sample and 3,81 pmol/sample and 3,47 pmol/sample"
same,ratio total SM/Cer,5 µM,"15,6 and 14,6 and 15,8"

# — paper PMC7756341, “Liposomal FRET Assay Identifies Potent Drug‐Like Inhibitors of the Ceramide Transport Protein (CERT)” (Chemistry (Weinheim an Der Bergstrasse, Germany), 2020)
